We go through five compounds from patent US7432227B2, “6-alkyl or alkenyl-4-aminopicolinates and their use as herbicides” (Dow AgroSciences LLC, priority 2003, dated 2008).

For series [1], the system named is Crabgrass(large) (Digitaria sanguinalis). Description: Preemergence herbicidal activity, Crabgrass(large). It is filed as in vivo. To be noted: pre-emergence, 504 h, visual score after 3 weeks, 100 = complete kill or no germination, read-out: Pre-emergent % control DIGSA; for pest or weed control at 280 ppm: rate 280 ppm. From the text: (§1) Seeds of the desired test plant species were planted in a soil matrix prepared by mixing a loam soil (43 percent silt, 19 percent clay, and 38 percent sand, with a pH of about 8.1 and an organic matter content of about 1.5 percent) and sand in a 70 to 30 ratio. The soil matrix was contained in plastic pots with a surface area of 113 square centimeters. When required to ensure good germination and healthy plants, a fungicide treatment and/or other chemical or physical treatment was applied. A weighed amount, determined by the highest rate to be tested, of each test compound was placed in a 20 mL glass vial and was dissolved in 4 mL of a 97:3 v/v (volume/volume) mixture of acetone and dimethyl sulfoxide to obtain concentrated stock solutions. […] The stock solutions obtained were diluted with a 99.9:0.1 mixture of water and Tween® […] surfactant to obtain application solutions of known concentration. The solutions containing the highest concentration to be tested were prepared by diluting 2 mL aliquots of the stock solution with 15 mL of the mixture and lower concentrations were prepared by serial dilution of the stock solution. A 2.5 mL aliquot of each solution of known concentration was sprayed evenly onto the soil surface (113 sq. cm) of each seeded pot using a Cornwall 5.0 mL glass syringe fitted with a TeeJet TN-3 hollow cone nozzle to obtain thorough coverage of the soil in each pot. Control pots were sprayed in the same manner with the aqueous mixture. The treated pots and control pots were placed in a greenhouse maintained with an approximate 15 hr photoperiod and temperatures of about 23-29° C. during the day and 22-28° C. during the night. Nutrients and water were added on a regular basis and supplemental lighting was provided with overhead metal halide 1000-Watt lamps as necessary. The water was added by top-irrigation. After 3 weeks the condition of the test plants that germinated and grew as compared with that of the untreated plants that germinated and grew was determined visually and scored on a scale of 0 to 100 percent where 0 corresponds to no injury and 100 corresponds to complete kill or no germination.

Series [2] relates to Giant Foxtail (Setaria faberi). Description: Preemergence herbicidal activity, Giant Foxtail. It is filed as in vivo. To be noted: pre-emergence, 504 h, visual score after 3 weeks, 100 = complete kill or no germination, read-out: Pre-emergent % control SETFA; for pest or weed control at 280 ppm: rate 280 ppm.
From the text: as §1

The test system of series [3] is Giant Foxtail (Setaria faberi). The series can be described thus: Postemergence herbicidal activity, Giant Foxtail. It counts as in vivo. Particulars: post-emergence, 336 h, visual score after 2 weeks, 0 = no injury, 100 = complete kill, read-out: Post-emergent % control SETFA; for pest or weed control at 250 ppm: rate 250 ppm. On the procedure: (§2) Seeds of the desired test plant species were planted in Grace-Sierra MetroMix® 306 planting mixture, which typically has a pH of 6.0 to 6.8 and an organic matter content of about 30 percent, in plastic pots with a surface area of 64 square centimeters. When required to ensure good germination and healthy plants, a fungicide treatment and/or other chemical or physical treatment was applied. The plants were grown for 7-21 days in a greenhouse with an approximate 15 hr photoperiod which was maintained at about 23-29° C. during the day and 22-28° C. during the night. Nutrients and water were added on a regular basis and supplemental lighting was provided with overhead metal halide 1000-Watt lamps as necessary. The plants were employed for testing when they reached the first or second true leaf stage. A weighed amount, determined by the highest rate to be tested, of each test compound was placed in a 20 mL glass vial and was dissolved in 4 mL of a 97:3 v/v (volume/volume) mixture of acetone and dimethyl sulfoxide (DMSO) to obtain concentrated stock solutions. […] The concentrated stock solutions obtained were diluted with an aqueous mixture containing acetone, water, isopropyl alcohol, DMSO, Atplus 411F crop oil concentrate, and Triton X-155 surfactant in a 48.5:39:10:1.5:1.0:0.02 v/v ratio to obtain spray solutions of known concentration. The solutions containing the highest concentration to be tested were prepared by diluting 2 mL aliquots of the stock solution with 13 mL of the mixture and lower concentrations were prepared by serial dilution of the stock solution. Approximately 1.5 mL aliquots of each solution of known concentration were sprayed evenly onto each of the test plant pots using a DeVilbiss atomizer driven by compressed air pressure of 2 to 4 psi (140 to 280 kilopascals) to obtain thorough coverage of each plant. Control plants were sprayed in the same manner with the aqueous mixture. In this test an application rate of 1 ppm results in the application of approximately 1 g/Ha. The treated plants and control plants were placed in a greenhouse as described above and watered by sub-irrigation to prevent wash-off of the test compounds. After 2 weeks the condition of the test plants as compared with that of the untreated plants was determined visually and scored on a scale of 0 to 100 percent where 0 corresponds to no injury and 100 corresponds to complete kill.

The subject of series [4] is Corn (#14 3377) (Zea mays). Description: Postemergence herbicidal activity, selectivity to corn. To be noted: crop (corn) selectivity, visual score after 2 weeks, 0 = no injury. It is filed as in vivo. On the procedure:
as §2

Series [5] concerns Lambsquarter (Chenopodium album). The series can be described thus: Postemergence herbicidal activity, Lambsquarter. It counts as in vivo. To be noted: post-emergence, 336 h, visual score after 2 weeks, 0 = no injury, 100 = complete kill, read-out: Post-emergent % control CHEAL; for pest or weed control at 250 ppm: rate 250 ppm. On the procedure: as §2
Series [6] deals with Barnyardgrass (Echinochloa crus-galli). The series can be described thus: Postemergence herbicidal activity, Barnyardgrass. Particulars: post-emergence, 336 h, visual score after 2 weeks, 0 = no injury, 100 = complete kill, read-out: Post-emergent % control ECHCG; for pest or weed control at 250 ppm: rate 250 ppm. It counts as in vivo. On the procedure:
as §2

Series [7] concerns Cocklebur (Xanthium strumarium). Description: Postemergence herbicidal activity, Cocklebur. It counts as in vivo. To be noted: post-emergence, 336 h, rate 250 ppm, visual score after 2 weeks, 0 = no injury, 100 = complete kill, read-out: Post-emergent % control XANST. On the procedure:
as §2

Series [8] deals with Pigweed (redroot) (Amaranthus retroflexus). The series can be described thus: Postemergence herbicidal activity, Pigweed (redroot). It is filed as in vivo. Particulars: visual score after 2 weeks, 0 = no injury, 100 = complete kill. On the procedure: as §2
Series [9] has as its system Ivyleaf Morningglory (Ipomoea hederacea). Description: Preemergence herbicidal activity, Ivyleaf Morningglory. It counts as in vivo. Particulars: pre-emergence, 504 h, visual score after 3 weeks, 100 = complete kill or no germination, read-out: Pre-emergent % control IPOHE; for pest or weed control at 280 ppm: rate 280 ppm.
From the text: as §1

Series [10] relates to Lambsquarter (Chenopodium album). Description: Preemergence herbicidal activity, Lambsquarter. It is filed as in vivo. To be noted: pre-emergence, 504 h, visual score after 3 weeks, 100 = complete kill or no germination, read-out: Pre-emergent % control CHEAL; for pest or weed control at 280 ppm: rate 280 ppm.
From the text: as §1

The subject of series [11] is Wheat(var.Merica) (Triticum aestivum). The series can be described thus: Postemergence herbicidal activity, selectivity to wheat. It is filed as in vivo. Particulars: crop (wheat) selectivity, visual score after 2 weeks, 0 = no injury. On the procedure:
as §2, with “Control plants were sprayed in the same manner with the aqueous mixture. In this test an application rate of 1 ppm results in the application of approximately 1 g/Ha. The treated plants and control plants were placed in a greenhouse as described above and watered by sub-irrigation to prevent wash-off of the test compounds.” left out

With `COCc1cc(N)c(Cl)c(C(=O)O)n1` [Compound 9, 4-Amino-3-chloro-6-(methoxymethyl)pyridine-2-carboxylic acid], the pest or weed control at 560 ppm in [1] (rate 560 ppm) came to 10%; in [2] (rate 560 ppm), 10%; in series [9] (rate 560 ppm), 50%; in [10] (rate 560 ppm), 90%. The pest or weed control at 250 ppm in series [3] came out at 0%; in series [5], 80%; in series [6] it was 0%; in [7], 80%. The “Post-emergent % control ZEAMX” value in series [4] (rate 250 ppm) is 0%. The “Post-emergent % control AMARE” value in series [8] (rate 250 ppm) was determined as 90%.

The melting point is the temperature, or range, at which the solid turns liquid. For `CCc1cc(N)c(Cl)c(C(=O)O)n1` [Compound 6, 4-Amino-3-chloro-6-ethylpyridine-2-carboxylic acid], the melting point lay in the range of 140 to 142 °C. In addition, in series [1], the pest or weed control at 280 ppm was 15%. In [2], the pest or weed control at 280 ppm worked out at 0%. Moreover, in series [11] (rate 250 ppm), the “Post-emergent % control TRZAS” value was found to be 0%. For the same compound, the pest or weed control at 250 ppm in series [3] turned out to be 0%. The “Post-emergent % control ZEAMX” value in [4] (rate 250 ppm) was found to be 0%. Besides, the pest or weed control at 250 ppm in series [5] was determined as 90%. Also, the pest or weed control at 250 ppm in series [6] stood at 0%. Besides, the pest or weed control at 250 ppm in series [7] stood at 98%. Moreover, the “Post-emergent % control AMARE” value in [8] (rate 250 ppm) came to 100%. The pest or weed control at 280 ppm in [9] came to 100%. Further, in [10], the pest or weed control at 280 ppm is 90%.

With `CCc1cc(N)c(Cl)c(C(=O)OC)n1` [Compound 4, Methyl 4-amino-3-chloro-6-ethylpyridine-2-carboxylate], the pest or weed control at 280 ppm was determined as 0% in series [1], 0% in series [2], 100% in series [9] and 98% in [10]. The “Post-emergent % control TRZAS” value in series [11] (rate 250 ppm) came to 0%. The pest or weed control at 250 ppm in [3] amounted to 0%; in [5], 100%; in series [6], 0%; in series [7], 95%. In addition, the “Post-emergent % control ZEAMX” value in series [4] (rate 250 ppm) amounted to 0%. For the same compound, the “Post-emergent % control AMARE” value in [8] (rate 250 ppm) came out at 98%.

`CCc1nc(C(=O)OC)c(Cl)c(N)c1F` [Compound 3, Methyl 4-amino-3-chloro-6-ethyl-5-fluoropyridine-2-carboxylate] registered a melting point of 109 to 110 °C. For the same compound, in [1] (rate 140 ppm), the pest or weed control at 140 ppm turned out to be 100%. Also, the pest or weed control at 140 ppm in [2] (rate 140 ppm) stood at 100%. Besides, the pest or weed control at 250 ppm in [3] was found to be 80%. Further, the pest or weed control at 250 ppm in series [5] came out at 100%. In addition, the pest or weed control at 250 ppm in [6] was 85%. Besides, in series [7], the pest or weed control at 250 ppm came to 100%. Further, the pest or weed control at 140 ppm in series [9] (rate 140 ppm) amounted to 100%. Also, the pest or weed control at 140 ppm in series [10] (rate 140 ppm) was determined as 100%.

Consider `COC(=O)c1nc(C)cc(N)c1Cl` [Compound 13, Methyl 4-amino-3-chloro-6-methylpyridine-2-carboxylate], for which the pest or weed control at 573 ppm in [1] (rate 573 ppm) was 0%; in series [2] (rate 573 ppm), 0%; in series [9] (rate 573 ppm), 90%; in series [10] (rate 573 ppm), 100%. In series [11] (rate 254 ppm), the “Post-emergent % control TRZAS” value worked out at 0%. Also, the pest or weed control at 254 ppm came out at 0% in [3] (rate 254 ppm), 70% in series [5] (rate 254 ppm) and 0% in series [6] (rate 254 ppm). Moreover, the “Post-emergent % control ZEAMX” value in series [4] (rate 254 ppm) is on record as 0%. Also, the “Post-emergent % control AMARE” value in series [8] (rate 254 ppm) was determined as 90%.
